# According to US20220144847A1, “HETEROCYCLIC COMPOUND, PHARMACEUTICAL COMPOSITION COMPRISING SAME, PREPARATION METHOD THEREFOR, AND USE THEREOF” (Sichuan Kelun-Biotech Biopharmaceutical Co., Ltd., priority 2019, published 2022):
# Like-named read-outs stand apart in the source and are kept apart here.
# Experiments:
# [1] = system: human medullary thyroid carcinoma TT cells; assay: Efficacy test in mice, subcutaneous xenograft tumor of TT cells; format: in vivo, Balb/c-nu mouse; details: 5 mg/kg, PO, BID; TT nude mouse xenograft
# Protocol: Experimental purpose: To evaluate the in vivo efficacy of Compound 17 and BLU-667 in a Balb/c-nu mouse model with a subcutaneous xenograft tumor of human medullary thyroid carcinoma TT cells.
# Drug preparation: Compound 17 was dissolved in 0.1 M aqueous solution of H3PO4, and BLU-667 was dissolved in 0.1 M aqueous solution of HOAc, to prepare clear solutions (pH: about 4.0). An aqueous solution of H3PO4 at a pH of about 4.0 was used for the solvent control group. The mode of administration was PO, BID.
# Tumor measurement: The tumor diameter was measured with a vernier caliper twice a week. The computing formula of the tumor volume is: V=0.5×a×b^2, where a represents a long diameter of the tumor, and b represents a short diameter of the tumor. Evaluation of tumor growth inhibition rate (TGI (%)) for tumor inhibition efficacy of the compounds: TGI (%)=[(1-(mean tumor volume of a treatment group at the end of drug administration-mean tumor volume of the treatment group at the commencement of drug administration))/(mean tumor volume of a solvent control group at the end of treatment-mean tumor volume of the solvent control group at the commencement of treatment)]×100%.
# Statistical analysis: Prism Graphpad5.0 software was used for statistical analysis based on the relative tumor volume at the end of the experiment. The comparison between multiple groups was analyzed by two-way ANOVA, and p<0.05 was considered as a significant difference.
# Experimental results: In the TT nude mouse xenograft model of human medullary thyroid carcinoma, Compound 17 has a significant […] anti-tumor effect at a dose of 5 mg/kg. […] Relative tumor growth rate T/C (%)=TRTV/CRTV×100%, where TRTV is the mean relative tumor volume of the test compound group, CRTV is the relative tumor volume of the solvent control group; and the relative tumor volume RTV=Vt/V0, where V0 is the mean tumor volume at the commencement of the administration, and Vt is the mean tumor volume measured on day t after the administration.
# VEGFR2 = VEGFR2 (Homo sapiens, UniProt P35968); assay: VEGFR2 inhibition experiment (HTRF KinEASE-TK kit); format: biochemical; details: read-out: IC50 for inhibiting VEGFR2
# Chain of VEGFR2 (P35968 20-1356, species assumed): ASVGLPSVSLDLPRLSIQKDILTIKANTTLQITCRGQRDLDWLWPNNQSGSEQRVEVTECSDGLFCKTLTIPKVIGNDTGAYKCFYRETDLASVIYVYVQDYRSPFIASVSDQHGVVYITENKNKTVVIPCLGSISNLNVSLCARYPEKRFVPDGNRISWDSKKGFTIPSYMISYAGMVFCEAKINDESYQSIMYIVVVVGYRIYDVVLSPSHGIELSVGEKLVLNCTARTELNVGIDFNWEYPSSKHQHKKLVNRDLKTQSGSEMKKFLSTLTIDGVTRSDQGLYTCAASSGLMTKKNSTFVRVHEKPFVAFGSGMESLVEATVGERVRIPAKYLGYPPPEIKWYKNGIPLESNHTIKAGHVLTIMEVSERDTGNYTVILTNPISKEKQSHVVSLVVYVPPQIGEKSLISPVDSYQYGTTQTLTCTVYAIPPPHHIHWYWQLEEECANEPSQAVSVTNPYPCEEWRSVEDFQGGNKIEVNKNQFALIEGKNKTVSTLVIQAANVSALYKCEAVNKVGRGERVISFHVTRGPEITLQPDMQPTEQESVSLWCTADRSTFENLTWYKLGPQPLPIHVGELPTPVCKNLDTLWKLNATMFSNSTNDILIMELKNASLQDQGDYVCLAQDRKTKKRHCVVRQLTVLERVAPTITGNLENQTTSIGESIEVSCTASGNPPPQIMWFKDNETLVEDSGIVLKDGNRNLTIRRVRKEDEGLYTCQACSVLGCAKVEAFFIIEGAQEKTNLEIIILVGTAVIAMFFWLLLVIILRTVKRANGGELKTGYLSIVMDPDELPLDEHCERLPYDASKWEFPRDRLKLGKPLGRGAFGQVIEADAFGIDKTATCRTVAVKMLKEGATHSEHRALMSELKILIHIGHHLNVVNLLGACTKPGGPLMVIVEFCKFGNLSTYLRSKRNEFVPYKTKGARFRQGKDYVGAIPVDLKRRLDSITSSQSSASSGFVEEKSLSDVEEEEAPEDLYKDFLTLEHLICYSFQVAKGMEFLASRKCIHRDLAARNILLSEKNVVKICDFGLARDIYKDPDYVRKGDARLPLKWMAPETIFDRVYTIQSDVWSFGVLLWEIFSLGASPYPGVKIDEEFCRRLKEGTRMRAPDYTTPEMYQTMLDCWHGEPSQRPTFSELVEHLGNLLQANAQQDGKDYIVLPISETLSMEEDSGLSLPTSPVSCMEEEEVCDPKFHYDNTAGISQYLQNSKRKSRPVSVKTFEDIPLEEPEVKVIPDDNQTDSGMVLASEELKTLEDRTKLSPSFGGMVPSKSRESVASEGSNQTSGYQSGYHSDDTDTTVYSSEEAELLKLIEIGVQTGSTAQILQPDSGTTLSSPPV
# How it was run: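 HTRF KinEASE-TK format: enzyme and compound were preincubated 30 min at room temperature, then substrate and ATP added for 40 min, followed by cryptate antibody/streptavidin-XL665 detection for 45 min. Inhibition was normalised to DMSO and no-enzyme controls; IC50 from a four-parameter fit.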
# RET-M918T = RET-M918T (Homo sapiens, UniProt P07949, M918T); assay: RET inhibition experiment (HTRF KinEASE-TK kit), mutant RET-M918T; format: biochemical; details: read-out: The IC50 (nM) for inhibiting the enzyme RET-M918T
# Chain of RET-M918T (P07949 29-1114 M918T): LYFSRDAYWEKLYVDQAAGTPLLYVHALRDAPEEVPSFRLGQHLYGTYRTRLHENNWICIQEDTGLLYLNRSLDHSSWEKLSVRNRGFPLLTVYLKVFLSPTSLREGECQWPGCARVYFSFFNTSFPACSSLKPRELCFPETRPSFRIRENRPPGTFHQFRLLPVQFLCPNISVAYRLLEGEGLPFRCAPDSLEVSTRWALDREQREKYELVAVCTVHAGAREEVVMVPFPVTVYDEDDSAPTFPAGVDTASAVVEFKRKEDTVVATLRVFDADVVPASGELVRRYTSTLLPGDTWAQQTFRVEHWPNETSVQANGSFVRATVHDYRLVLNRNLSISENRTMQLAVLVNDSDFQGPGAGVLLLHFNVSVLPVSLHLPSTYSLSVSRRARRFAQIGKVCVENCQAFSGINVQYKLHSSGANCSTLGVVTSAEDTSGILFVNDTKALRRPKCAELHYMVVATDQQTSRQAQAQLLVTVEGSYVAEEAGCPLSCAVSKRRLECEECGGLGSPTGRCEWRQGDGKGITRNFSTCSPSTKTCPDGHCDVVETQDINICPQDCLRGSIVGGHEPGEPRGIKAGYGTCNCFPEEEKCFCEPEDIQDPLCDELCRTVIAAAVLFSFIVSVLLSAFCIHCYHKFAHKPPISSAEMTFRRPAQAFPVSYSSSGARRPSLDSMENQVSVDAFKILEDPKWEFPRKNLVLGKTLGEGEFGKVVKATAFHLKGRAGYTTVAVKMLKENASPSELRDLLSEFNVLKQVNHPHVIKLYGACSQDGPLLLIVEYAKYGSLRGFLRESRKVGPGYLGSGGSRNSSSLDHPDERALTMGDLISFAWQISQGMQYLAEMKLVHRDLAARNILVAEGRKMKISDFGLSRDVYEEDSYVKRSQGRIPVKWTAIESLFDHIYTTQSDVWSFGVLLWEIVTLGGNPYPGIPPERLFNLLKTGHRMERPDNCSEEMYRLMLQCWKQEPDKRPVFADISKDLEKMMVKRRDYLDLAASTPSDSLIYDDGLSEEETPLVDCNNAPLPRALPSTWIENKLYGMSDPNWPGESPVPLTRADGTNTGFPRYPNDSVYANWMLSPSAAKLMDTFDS
# Protocol: (§1) Experimental method: […] After incubation at room temperature for 40 min, TK antibody-cryptate and streptavidin-XL665 were added, and the test was performed after incubation at room temperature for 45 min. With the solvent group (DMSO) as the negative control and the buffer group (without RET enzyme) as the blank control, the relative inhibitory activity percentages (i.e., inhibition rates) of different concentrations of the compounds were computed as per the following formula: […] The relative inhibitory activity percentages of different concentrations of the compounds were plotted with respect to the compound concentrations, and the curve was fitted according to a four-parameter model to compute the IC50 value as per the following formula: y=min+(max-min)/(1+(x/IC50)^(-Hillslope)) where y is the relative inhibitory activity percentage, max is the maximum value of the fitted curve, min is the minimum value of the fitted curve, x is the logarithmic concentration of the compound, and Hillslope is the slope of the curve.
# RET-WT = RET-WT (Homo sapiens, UniProt P07949); assay: RET inhibition experiment (HTRF KinEASE-TK kit), wild-type RET enzyme; format: biochemical; details: read-out: The IC50 (nM) for inhibiting RET-WT
# Chain of RET-WT (P07949 29-1114): as the sequence (P07949 29-1114 M918T) above, with T890M counted along it
# Protocol: as §1
# [2] = Pharmacokinetics and tissue distribution of compounds in rats; format: in vivo; details: male, SD, rat, PO 5 mg/kg; for AUC(0-t): read-out: AUC AUClast; for Cmax: read-out: Peak concentration Cmax; for Kp: read-out: T/P Ratio of AUClast in tissue to plasma; for Tmax: read-out: Time to peak concentration Tmax
# Protocol: By intragastric administration (PO) of BLU-667 (prepared according to Example 5 of WO2017/079140A1) and Compound 17 to male SD rats respectively, the plasma concentrations and the tissue concentrations of BLU-667 and Compound 17 in brains, lungs and thyroid of rats were determined to investigate the pharmacokinetic characteristics. The dosage of administration by PO was 5 mg/kg, and the solvent was 0.5% MC (methylcellulose). With administration by PO, blood samples were collected at different time points (0 h before administration, and 0.25 h, 0.5 h, 1 h, 2 h, 4 h, 6 h, 8 h, and 24 h after administration). The blood samples were anticoagulated with dipotassium edetate, and centrifuged to provide plasma samples, which were stored at −80° C. Rats were sacrificed by exsanguination from abdominal aorta at 0.5 h, 2 h, 8 h, and 24 h after PO administration. Brain, lung and thyroid were collected, washed, and homogenized with normal saline at a certain ratio, to provide tissue samples which were stored at −80° C. The plasma samples and tissue samples were processed with precipitated protein and then analyzed by LC-MS/MS. The pharmacokinetic parameters were computed using WinNonlin 6.3 software and using a non-compartmental model.
compound,measurement,setting,value
"Cc1cc(Nc2cc(C)[nH]n2)nc(-c2ccc(N3CC4CC(C3)N4Cc3ccc(-n4cc(F)cn4)nc3)nc2)n1 [Compound 17, 2-(6-(6-((6-(4-fluoro-1H-pyrazol-1-yl)pyridin-3-yl)methyl)-3,6-diazabicyclo[3.1.1]heptan-3-yl)pyridin-3-yl)-6-methyl-N-(5-methyl-1H-pyrazol-3-yl)pyrimidin-4-amine]",Relative tumor growth rate T/C,[1],17.44%
same,Tumor growth inhibition rate TGI,[1],131.36%
same,IC50,VEGFR2,63 ± 11.8 nM
same,IC50,RET-M918T,1.47 ± 0.29 nM
same,IC50,RET-WT,1.32 ± 0.31 nM
same,AUC(0-t),[2]; brain,1010 ng·h/mL
same,Cmax,[2]; brain,153 ng/mL
same,Kp,[2]; brain,0.15
same,Tmax,[2]; brain,2 h
same,AUC(0-t),[2]; lung,79600 ng·h/mL
same,Cmax,[2]; lung,9620 ng/mL
same,Kp,[2]; lung,11.7
same,Tmax,[2]; lung,2 h
same,AUC(0-t),[2]; plasma,6790 ng·h/mL
same,Cmax,[2]; plasma,772 ng/mL
same,Kp,[2]; plasma,1
same,Tmax,[2]; plasma,2 h
same,AUC(0-t),[2]; thyroid,11400 ng·h/mL
same,Cmax,[2]; thyroid,1870 ng/mL
same,Kp,[2]; thyroid,1.68
same,Tmax,[2]; thyroid,8.49 h
